Target: FXR (Homo sapiens (Human), UniProt Q96RI1)
Assay: FXR EC50 (FXR agonist activity reported with each example)
Type: cell-based

FXR, sequence (Q96RI1 262-486): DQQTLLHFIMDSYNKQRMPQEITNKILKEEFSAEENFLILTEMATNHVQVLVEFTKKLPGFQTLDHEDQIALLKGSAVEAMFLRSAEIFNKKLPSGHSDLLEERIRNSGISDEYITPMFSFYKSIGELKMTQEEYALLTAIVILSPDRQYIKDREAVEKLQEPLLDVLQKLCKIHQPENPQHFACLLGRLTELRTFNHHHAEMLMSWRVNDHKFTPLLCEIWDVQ

Structure (SMILES)	EC50 [µM]
O=C(O)c1cnc(OCC23CCC(OCc4c(-c5c(Cl)cncc5Cl)noc4C4CC4)(CC2)CC3)c(C(F)(F)F)c1 [Example 279, 6-((4-((5-cyclopropyl-3-(3,5-dichloropyridin-4-yl)isoxazol-4-yl)methoxy)bicyclo[2.2.2]octan-1-yl)methoxy)-5-(trifluoromethyl)nicotinic acid]	0.19
O=C(O)c1ccc(C(O)C23CCC(OCc4c(-c5c(Cl)cccc5Cl)noc4C4CC4)(CC2)CC3)c(F)c1 (stereo not shown) [Example 125, 4-((4-((5-cyclopropyl-3-(2,6-dichlorophenyl)isoxazol-4-yl)methoxy)bicyclo[2.2.2]octan-1-yl)(hydroxy)methyl)-3-fluorobenzoic acid]	1.6
COc1cc(OCC23CCC(OCc4c(-c5c(Cl)cncc5Cl)noc4C4CC4)(CC2)CC3)cc(C(=O)O)c1 [Example 321, 3-((4-((5-cyclopropyl-3-(3,5-dichloropyridin-4-yl)isoxazol-4-yl)methoxy)bicyclo[2.2.2]octan-1-yl)methoxy)-5-methoxybenzoic acid]	0.007
O=C(O)c1cc(-c2noc(C34CCC(/C=C/c5c(-c6c(Cl)cncc6Cl)noc5C5CC5)(CC3)CC4)n2)ccc1OC(F)F [Example 446, (E)-5-(5-(4-(2-(5-cyclopropyl-3-(3,5-dichloropyridin-4-yl)isoxazol-4-yl)vinyl)bicyclo[2.2.2]octan-1-yl)-1,2,4-oxadiazol-3-yl)-2-(difluoromethoxy)benzoic acid]	0.35
O=C(O)Cc1noc(C23CCC(OCc4c(-c5c(Cl)cccc5Cl)noc4C4CC4)(CC2)CC3)n1 [Example 72, 2-(5-(4-((5-cyclopropyl-3-(2,6-dichlorophenyl)isoxazol-4-yl)methoxy)bicyclo[2.2.2]octan-1-yl)-1,2,4-oxadiazol-3-yl)acetic acid]	3.1
CC(C)Oc1nc(C(=O)O)cc2ccc(/C=C/C34CCC(OCc5c(-c6c(Cl)cncc6Cl)noc5C5CC5)(CC3)CC4)cc12 [Example 518, (E)-7-(2-(4-((5-cyclopropyl-3-(3,5-dichloropyridin-4-yl)isoxazol-4-yl)methoxy)bicyclo[2.2.2]octan-1-yl)vinyl)-1-isopropoxyisoquinoline-3-carboxylic acid]	0.062
COC(=O)c1ccc(-c2noc(C34CCC(C=Cc5c(-c6c(Cl)cccc6Cl)noc5C5CC5)(CC3)C4)n2)cc1 [Intermediate 226C, methyl 4-(5-(4-(2-(5-cyclopropyl-3-(2,6-dichlorophenyl)isoxazol-4-yl)vinyl)bicyclo[2.2.1]heptan-1-yl)-1,2,4-oxadiazol-3-yl)benzoate]	2.5
COC(=O)c1ccc(-c2noc(C34CCC(C=Cc5c(-c6c(Cl)cccc6Cl)noc5C5CC5)(CC3)CC4)n2)cc1 [Example 161]	0.95
O=C(O)c1cc(C(F)(F)F)cc2nc(C34CCC(OCc5c(-c6c(Cl)cncc6Cl)noc5C5CC5)(CC3)CC4)ccc12 [Example 420]	0.003
Cn1cc(C(=O)O)c2ccc(C#CC34CCC(OCc5c(-c6c(Cl)cncc6Cl)noc5C5CC5)(CC3)CC4)nc21 [Example 363]	0.26
COc1c(C#CC23CCC(OCc4c(-c5c(Cl)cncc5Cl)noc4C4CC4)(CC2)CC3)cccc1C(=O)O [Example 383]	0.82
O=C(O)c1cc(-c2noc(C34CCC(OCc5c(-c6c(Cl)cncc6Cl)noc5C5CC5)(CC3)CC4)n2)ccc1F [Example 233, 5-(5-(4-((5-cyclopropyl-3-(3,5-dichloropyridin-4-yl)isoxazol-4-yl)methoxy)bicyclo[2.2.2]octan-1-yl)-1,2,4-oxadiazol-3-yl)-2-fluorobenzoic acid]	0.092
N#Cc1cccc(OCC23CCC(OCc4c(-c5c(Cl)cccc5Cl)noc4C4CC4)(CC2)CC3)c1 [Example 88, 3-((4-((5-cyclopropyl-3-(2,6-dichlorophenyl)isoxazol-4-yl)methoxy)bicyclo[2.2.2]octan-1-yl)methoxy)benzonitrile]	0.96
O=C(O)c1ccc(-c2noc(C34CCC(COCc5c(-c6ccccc6OC(F)(F)F)noc5C5CC5)(CC3)CO4)n2)cc1 [Example 209, 4-(5-(4-(((5-cyclopropyl-3-(2-(trifluoromethoxy)phenyl)isoxazol-4-yl)methoxy)methyl)-2-oxabicyclo[2.2.2]octan-1-yl)-1,2,4-oxadiazol-3-yl)benzoic acid]	0.47
O=C(O)c1cc(OCC2COC2)c2cc(OCC34CCC(OCc5c(-c6c(Cl)cncc6Cl)noc5C5CC5)(CC3)CC4)ccc2n1 [Example 360]	0.14
NC(=O)c1cc(C(F)(F)F)cc2nc(C34CCC(OCc5c(-c6c(Cl)cncc6Cl)noc5C5CC5)(CC3)CC4)sc12 [Example 435, 2-(4-((5-cyclopropyl-3-(3,5-dichloropyridin-4-yl)isoxazol-4-yl)methoxy)bicyclo[2.2.2]octan-1-yl)-5-(trifluoromethyl)benzo[d]thiazole-7-carboxamide]	0.46
O=C(O)Cc1ccnc(OCC23CCC(OCc4c(-c5c(Cl)cccc5Cl)noc4C4CC4)(CC2)CC3)c1 [Example 104, 2-(2-((4-((5-cyclopropyl-3-(2,6-dichlorophenyl)isoxazol-4-yl)methoxy)bicyclo[2.2.2]octan-1-yl)methoxy)pyridin-4-yl)acetic acid]	0.21
O=C(O)c1ccc(C#CC23CCC(OCc4c(-c5c(Cl)cncc5Cl)noc4C4CC4)(CC2)CC3)nn1 [Example 419]	2
CC(C)Oc1cc(C(=O)O)nc2ccc(C#CC34CCC(OCc5c(-c6c(Cl)cncc6Cl)noc5C5CC5)(CC3)CC4)cc12 [Example 390]	0.02
O=C(O)c1cccc2nc(OCC34CCC(OCc5c(-c6c(Cl)cncc6Cl)noc5C5CC5)(CC3)CC4)ccc12 [Example 343]	0.075
O=C(O)c1cccc(-c2nc(C34CCC(OCc5c(-c6ccccc6C(F)(F)F)noc5C5CC5)(CC3)CC4)no2)n1 [Example 23, 6-(3-(4-((5-cyclopropyl-3-(2-(trifluoromethyl)phenyl)isoxazol-4-yl)methoxy)bicyclo[2.2.2]octan-1-yl)-1,2,4-oxadiazol-5-yl)picolinic acid]	2.8
O=C(O)c1cccc(CC(O)C23CCC(OCc4c(-c5c(Cl)cccc5Cl)noc4C4CC4)(CC2)CC3)c1 (stereo not shown) [Example 127, 3-(2-(4-((5-cyclopropyl-3-(2,6-dichlorophenyl)isoxazol-4-yl)methoxy)bicyclo[2.2.2]octan-1-yl)-2-hydroxyethyl)benzoic acid]	0.28
O=C(O)c1ccc(C2CC2)c2nc(C34CCC(OCc5c(-c6c(Cl)cncc6Cl)noc5C5CC5)(CC3)CC4)ccc12 [Example 385, 8-cyclopropyl-2-(4-((5-cyclopropyl-3-(3,5-dichloropyridin-4-yl)isoxazol-4-yl)methoxy)bicyclo[2.2.2]octan-1-yl)quinoline-5-carboxylic acid]	0.013
COc1cc(Cl)c2nc(C34CCC(OCc5c(-c6c(Cl)cncc6Cl)noc5C5CC5)(CC3)CC4)ccc2c1C(=O)O [Example 426, 8-chloro-2-(4-((5-cyclopropyl-3-(3,5-dichloropyridin-4-yl)isoxazol-4-yl)methoxy)bicyclo[2.2.2]octan-1-yl)-6-methoxyquinoline-5-carboxy c acid]	0.012
O=C(O)c1cccc(NCC23CCC(OCc4c(-c5ccccc5OC(F)(F)F)noc4C4CC4)(CC2)CC3)c1 [Example 85]	0.61
